# From patent US6750199B2, “Antimicrobial sulfonamide derivatives of lipopeptide antibiotics” (Micrologix Biotech Inc., priority 2000, dated 2004)
# Like-named read-outs stand apart in the source and are kept apart here. Starred links: 1 amine or outer side, 2 acyl side, 3 side chain; linkers in the order of their positions; H or OH if unused. Positions of bridges follow the written chain, without caps; N, C: chain ends. Non-standard residues stand in square brackets, D forms with d. Residues, ends and D or L forms follow the SMILES beside them. ξ: configuration not given here. *: point of attachment. Hexadecanesulfonyl = CCCCCCCCCCCCCCCCS(=O)(=O)*; ξAbu(βξ-NH2) = CC(N[*:3])C(N[*:1])C(=O)[*:2]; ξAsp(βξ-Me) = CC(C(=O)O)C(N)C(=O)O; ξAbu(3ξ-NH2) = CC(N)C(N)C(=O)O; X1 = CCCCCCCCCCS(=O)(=O)*; Pip = O=C(O)[CH]1CCCCN1; ξD = NC(CC(=O)O)C(=O)O; Dap = NC[CH](N)C(=O)O; ξI = CCC(C)C(N)C(=O)O; ξPip = O=C(O)C1CCCCN1; ξT = CC(O)C(N)C(=O)O; ξDap = NCC(N)C(=O)O; ξP = O=C(O)C1CCCN1
# Experiments:
# [1] = test system: Staphlococcus aureus strain Smith; type: cell-based
# Protocol: MIC values were determined by microliter serial dilution using Staphlococcus aureus strain Smith as the assay organism, which was grown in Mueller-Hinton broth with and without CaCl2.
# [2] = test system: deacylase broth; assay: in vitro; type: in vitro ADME, Actinoplanes utahensis NRRL 12052
# Protocol: (§1) The high-producing, natural variant was used in the known fermentation protocol employed (Boeck et al., 1988. J. Antibiot., 41, 1085). A stock culture of Actinoplanes utahensis NRRL 12052 variant, preserved in 20% glycerol at −70° C., was introduced into a 25×150 mm test tube containing 10 mL of a medium comprised of 2.0% sucrose, 2.0% pre-cooked oatmeal, 0.5% distiller's grain, 0.25% yeast, 0.1% K2HPO4, 0.05% KCl, 0.05% MgSO4-7H2O and 0.0002% FeSO4-7H2O in deionized water. After incubation at 30° C. for 72 hrs on a rotary shaker orbiting at 250 rpm the resulting mycelial suspension was transferred into 50 mL of PM3 medium in a 250 mL Erlenmeyer flask. The PM3 medium contained 2.0% sucrose, 1.0% peanut meal, 0.12% K2HPO4, 0.05% KH2PO4 and 0.025% MgSO4-7H2O, in tap water. The flask was incubated at a temperature of 30° C. for a period of between 60 to 90 hrs. The whole broth from this fermentation contained the deacylase enzyme.
# (§2) One milligram of the hexadecylsulfonyl-L-tryptophan derivative of the core antibiotic of laspartomycin (see Section 5.4 for preparation) was added to 2 mL of deacylase broth (prepared as described in Section 5.1) and a zero time sample (0.5 mL) was removed and stored by freezing. The reaction mixture was placed on a shaker at 200 rpm and 84° C. for 16 hours. The zero and 16 hour samples were then studied by HPLC and by agar well zone diffusion assay using Staphylococuss aureus as a test organism. The same conditions were used to compare laspartomycin to enzyme deactivation. […] Under the same conditions Antibiotic A21978C and Aspartocin were completely deactivated within two hours and 16 hours, respectively.
# [3] = test system: deacylase; assay: in vitro; type: in vitro ADME, Actinoplanes utahensis NRRL 12052; settings: Actinoplanes utahensis, cells or culture medium
# Protocol: as §1, §2
# [4] = test system: Staphylococuss aureus; assay: Resistance to deacylase enzyme: agar well zone diffusion bioassay of deacylase broth samples; type: cell-based; settings: 9 mm well, 100 μl of sample, incubated 16 hrs. at 28° C.; for Bioassay zone dia. 16 hours: after 16 hours in deacylase broth, 200 rpm, 84° C.; for Bioassay zone dia. Zero time: zero time in deacylase broth
# Protocol: as §2
# [5] = test system: Staphylococcus aureus; assay: MIC against Staphylococcus aureus (comparison with aspartocin); type: cell-based
# Protocol: One drop of piperdine was added to about 5.5 mg of the product from Section 5.2.4 dissolved in 2.0 mL of 2:1 mixture of dimethylsulfoxide:methanol. Monitoring by HPLC indicated the reaction was complete after 60 minutes at room temperature. The reaction was quenched by addition of 6.0 mL cooled 0.2 M ammonium phosphate at pH 7.2. The quenched reaction mixture was applied to a 0.5 g resin cartridge (ENVI-Chrom P) and eluted with a stepwise gradient of pH 7.2 phosphate-buffered aqueous acetonitrile. The product was eluted with 25% acetonitrile. Appropriate fractions were pooled and acetonitrile was removed under vacuum at room temperature. The product was desalted by adsorption onto a 0.5 g resin cartridge which was then rinsed with 10% acetonitrile, followed by 50% acetonitrile. The 50% acetonitrile eluate was evaporated to remove acetonitrile and the resulting aqueous solution freeze dried to provide about 1.5 mg of white solid. FAB-MS: m/z 1379 (M+Na)^+ was consistent with the expected structure.
molecule,measurement,setting,value
CCCCCCCCCCCCCCCCS(=O)(=O)NC(Cc1c[nH]c2ccccc12)C(=O)NC(CC(=O)O)C(=O)NC1CNC(=O)C2CCCN2C(=O)C(C(C)CC)NC(=O)C(C(C)O)NC(=O)CNC(=O)C(CC(=O)O)NC(=O)CNC(=O)C(CC(=O)O)NC(=O)CNC(=O)C2CCCCN2C1=O (stereo not drawn) [Compound 52] (Hexadecanesulfonyl-WD[Dap][Pip]GDGDGTIP; lactam 3-C; configuration not given here),MIC w CaCl2 (4 mm),[1],4000 µg/mL
same,MIC w/o CaCl2,[1],8000 to 16000 µg/mL
CCCCCCCCCCCCCCCCS(=O)(=O)NC(Cc1ccccc1)C(=O)NC(CC(=O)O)C(=O)NC1CNC(=O)C2CCCN2C(=O)C(C(C)CC)NC(=O)C(C(C)O)NC(=O)CNC(=O)C(CC(=O)O)NC(=O)CNC(=O)C(CC(=O)O)NC(=O)CNC(=O)C2CCCCN2C1=O (stereo not drawn) [Compound 56] (Hexadecanesulfonyl-FD[Dap][Pip]GDGDGTIP; lactam 3-C; configuration not given here),MIC w CaCl2 (4 mm),[1],4000 µg/mL
same,MIC w/o CaCl2,[1],8000 µg/mL
CCCCCCCCCCS(=O)(=O)NCC(=O)NC(CC(=O)O)C(=O)NC1C(=O)N2CCCCC2C(=O)NC(C(C)C(=O)O)C(=O)NC(CC(=O)O)C(=O)NCC(=O)NC(CC(=O)O)C(=O)NCC(=O)NC(C(C)N)C(=O)NC(C(C)C)C(=O)N2CCCC2C(=O)NC1C (stereo not drawn) [Compound 58] (X1-GD[ξAbu(βξ-NH2)][Pip][ξAsp(βξ-Me)]DGDG[ξAbu(3ξ-NH2)]VP; lactam 3-C; configuration not given here),MIC w CaCl2 (4 mm),[1],1000 µg/mL
same,MIC w/o CaCl2,[1],32000 µg/mL
CCCCCCCCCCCCCCCCS(=O)(=O)NC(Cc1ccccc1)C(=O)NC(CC(=O)O)C(=O)NC1C(=O)N2CCCCC2C(=O)NC(C(C)C(=O)O)C(=O)NC(CC(=O)O)C(=O)NCC(=O)NC(CC(=O)O)C(=O)NCC(=O)NC(C(C)N)C(=O)NC(C(C)C)C(=O)N2CCCC2C(=O)NC1C (stereo not drawn) [Compound 62] (Hexadecanesulfonyl-FD[ξAbu(βξ-NH2)][Pip][ξAsp(βξ-Me)]DGDG[ξAbu(3ξ-NH2)]VP; lactam 3-C; configuration not given here),MIC w CaCl2 (4 mm),[1],4000 µg/mL
same,MIC w/o CaCl2,[1],4000 µg/mL
CCCCCCCCCCCCCCCCS(=O)(=O)N[C@@H](Cc1c[nH]c2ccccc12)C(=O)N[C@@H](CC(=O)O)C(=O)NC1CNC(=O)C2CCCN2C(=O)C(C(C)CC)NC(=O)C(C(C)O)NC(=O)CNC(=O)C(CC(=O)O)NC(=O)CNC(=O)C(CC(=O)O)NC(=O)CNC(=O)C2CCCCN2C1=O (stereo partly drawn) [Hexadecylsulfonyl-L-Tryptophan Derivative of the Core Antibiotic of Laspartomycin] (Hexadecanesulfonyl-WD[ξDap][ξPip]G[ξD]G[ξD]G[ξT][ξI][ξP]; lactam 3-C),HPLC Peak Area zero time,[2],100%
same,deactivation / degradation by the enzyme preparation (in words),[2],degraded at a much slower rate
same,"remaining at 16 h, 0.5 mg/mL",[3],53%
same,Bioassay zone dia. 16 hours,[4],12.8 mm
same,Bioassay zone dia. Zero time,[4],13.7 mm
Decanesulfonylglycyl Aspartocin [decanesulfonylglycyl derivative],MIC values compared with aspartocin,[5],essentially the same as those for aspartocin
laspartomycin [reference compound],HPLC Peak Area zero time,[2],100%
same,deactivation / degradation by the enzyme preparation (in words),[2],complete deactivation
same,HPLC Peak Area 16 hours,"[2]; Actinoplanes utahensis, cells or culture medium, 16 h, 0.5 mg/mL",0%
same,MIC w CaCl2 (4 mm),"[1]; S. aureus strain Smith, Mueller-Hinton broth, with CaCl2 (4 mm)",2000 µg/mL
same,MIC w/o CaCl2,"[1]; S. aureus strain Smith, Mueller-Hinton broth, without CaCl2",16000 µg/mL
same,Bioassay zone dia. 16 hours,[4],no zone
same,Bioassay zone dia. Zero time,[4],15.5 mm
